Patent publication US20230115515A1, “PYRAZOLYLPROPANAMIDE COMPOUNDS AND USES THEREOF FOR TREATMENT OF PROSTATE CANCER” (priority 2020, published 2023)

Assays:
[1] = tested on: FKBP5 gene expression in LNCaP cells; experiment: AR-target gene (FKBP5) expression in LNCaP cells, real-time PCR; format: cell-based, human; settings: R1881-induced, FIG. 3
[2] = tested on: AR and AR-V7-positive 22RV1 xenograft; experiment: 22RV1 xenograft in NSG mice; format: in vivo, mouse
UT-1355 TNBC PDX = experiment: TNBC patient-derived xenograft UT-1355 in NSG mice; format: in vivo, mouse; settings: for tumor volume at end: in mm³ (unit assumed)
[3] = tested on: Enzalutamide resistant VCaP (MDVR VCaP) xenograft; settings: cited from earlier work
[4] = biological target: recombinant LBD of wildtype AR (wtAR); settings: read-out: Binding Ki; cited from earlier work
[5] = Metabolic stability in mouse liver microsomes (phase I and II)
[6] = Metabolic stability in rat liver microsomes (phase I and II); format: in vitro ADME; settings: for half-life at 1 µM: read-out: RLM T1/2
[7] = tested on: ventral prostate (VP) and seminal vesicle (SV) weights; experiment: Hershberger assay in intact rats; format: in vivo, rat
Description: FIGS. 7A and 7B depict that SARDs and pan-antagonists inhibited androgen-dependent organs in rats. FIGS. 7 A and 7B show the reduction of VP and SV weights following the treatment of intact rats with 20 mg/kg (mpk) po daily of antagonist or vehicle for 14 days (n=5/group). Rats were sacrificed at the end of the treatment period and weights of prostate and SVs were measured and normalized to body weight.
Male rats (6-8 weeks old) were randomized into groups based on body weight. Animals were sacrificed, prostate and seminal vesicles were weighed, and organ weights were normalized to body weight. Male rats (n=5/group) were left intact, for […]. […] Organ weights were normalized to body weight. […] The goal of the experiments was to find compounds with in vivo antiandrogen efficacies greater than 10.
Hershberger Assays. […] Rat ventral prostate (VP), seminal vesicle (SV), and levator ani (LA) muscle are AR-dependent tissues whose size (reflected by their weight) responds rapidly to castration.
Traditionally, agonists are dosed to prevent (whereby agonist is given upon castration) or restore (agonist is given after tissue atrophies) anabolic tissue weights [LA or other skeletal muscles and bone (the latter takes months not days to atrophy and restore)] to intact levels or greater, without increasing androgenic tissue (SV or VP) weights back to intact levels. […]

[8] = In vivo lethality observation; settings: 5 mg/kg
[9] = Metabolic stability in human liver microsomes (phase I and II); format: in vitro ADME
in vitro = settings: mouse, microsomes, pH 7.5
[10] = tested on: Enzalutamide resistant VCaP (MDVR VCaP) xenograft; experiment: Enz-R (MDVR) VCaP xenograft in intact SRG rats; format: in vivo, rat; settings: 10 mg/kg po daily, FIG. 8B
CMV-hAR = CMV-hAR (Homo sapiens, UniProt P10275); experiment: cell-based; settings: read-out: Wt. IC50
CMV-hAR, sequence (P10275 whole entry, the tested form may be a part): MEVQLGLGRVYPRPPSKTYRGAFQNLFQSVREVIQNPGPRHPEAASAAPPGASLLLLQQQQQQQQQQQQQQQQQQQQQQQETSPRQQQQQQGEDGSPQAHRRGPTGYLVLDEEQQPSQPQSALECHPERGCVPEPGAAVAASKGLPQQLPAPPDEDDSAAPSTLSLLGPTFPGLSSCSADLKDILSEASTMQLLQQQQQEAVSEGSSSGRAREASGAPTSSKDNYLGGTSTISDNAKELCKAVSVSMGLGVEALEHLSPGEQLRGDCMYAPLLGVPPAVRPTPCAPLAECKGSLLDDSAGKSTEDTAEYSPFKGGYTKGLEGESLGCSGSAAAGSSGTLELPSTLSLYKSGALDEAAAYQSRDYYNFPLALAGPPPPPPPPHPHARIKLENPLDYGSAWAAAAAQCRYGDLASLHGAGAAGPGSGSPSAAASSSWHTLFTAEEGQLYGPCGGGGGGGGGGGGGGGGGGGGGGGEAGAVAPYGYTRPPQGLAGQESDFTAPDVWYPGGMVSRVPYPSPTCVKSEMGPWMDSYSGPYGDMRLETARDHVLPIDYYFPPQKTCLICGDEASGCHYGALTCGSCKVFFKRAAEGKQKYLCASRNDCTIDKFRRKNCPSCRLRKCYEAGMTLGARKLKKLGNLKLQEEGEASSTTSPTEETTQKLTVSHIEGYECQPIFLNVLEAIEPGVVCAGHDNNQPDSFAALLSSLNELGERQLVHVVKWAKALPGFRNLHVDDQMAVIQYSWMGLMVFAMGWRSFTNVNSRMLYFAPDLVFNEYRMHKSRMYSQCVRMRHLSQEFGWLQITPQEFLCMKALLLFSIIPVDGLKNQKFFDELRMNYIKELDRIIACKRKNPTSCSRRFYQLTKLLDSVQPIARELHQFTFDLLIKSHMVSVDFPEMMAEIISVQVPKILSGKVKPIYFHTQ

hAR-LBD (633-919) = biological target: T1, hAR-LBD (633-919) (Homo sapiens, UniProt P10275); experiment: Ligand binding assay (Ki), [3H]mibolerone competition (Table A)
T1 sequence (P10275 633-919): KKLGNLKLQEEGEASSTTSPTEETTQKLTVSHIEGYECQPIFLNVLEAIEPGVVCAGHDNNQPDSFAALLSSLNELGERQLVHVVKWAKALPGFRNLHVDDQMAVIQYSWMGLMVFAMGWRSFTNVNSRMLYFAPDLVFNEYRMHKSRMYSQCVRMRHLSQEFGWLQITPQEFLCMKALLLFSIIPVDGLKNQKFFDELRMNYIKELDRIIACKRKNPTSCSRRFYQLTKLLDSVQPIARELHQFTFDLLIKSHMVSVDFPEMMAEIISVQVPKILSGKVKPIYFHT

[11] = pH 7.5, MLM T1/2 (min), co-factors for phases I and II
[12] = rat, microsomes, pH 7.5, cofactors for phases I and II

Compound: CNC(=O)c1ccc(N2C(=S)N(c3ccc(C#N)c(C(F)(F)F)c3)C(=O)C2(C)C)cc1F [4 (enzalutamide), enzalutamide, reference compound]
- inhibition of FKBP5 expression [1]: also inhibited expression of the FKBP5 but at a slightly lower potency
- time to euthanasia criteria (Kaplan-Meier) ([2]; length>2 cm or volume>2000 mm^3, FIG. 12): reached euthanasia criteria earlier than the animals treated with 21c
- effect on 22RV1 xenograft growth ([2]; oral, NSG mice): failed to inhibit the growth
- time to euthanasia criteria (Kaplan-Meier) (UT-1355 TNBC PDX; enzalutamide 60 mpk, FIG. 15): reached euthanasia criteria earlier than the animals treated with 21c
- effect in MDVR VCaP xenograft ([3]; not shown, previously published): failed to durably achieve any effect

Compound: CC(O)c1cc(C(=O)N[C@@H](C)Cn2ccc(-c3ccc(C#N)c(Cl)c3)n2)[nH]n1 (some centres unmarked) [6 (darolutamide), darolutamide]
- Ki [4]: 0.011 µM

Compound: C[C@](O)(Cn1cc(F)cn1)C(=O)Nc1ccc(C#N)c(C(F)(F)F)c1 [Compound 10, (S)—N-(4-Cyano-3-(trifluoromethyl)phenyl)-3-(4-fluoro-1H-pyrazol-1-yl)-2-hydroxy-2-methylpropanamide]
- tumor volume at start (UT-1355 TNBC PDX; 60 mpk 21c, 10 60 mpk b.i.d): 427 mm³
- tumor volume at end (UT-1355 TNBC PDX; 60 mpk 21c, 10 60 mpk b.i.d): 1354
- dose required to achieve similar results (TGI) ([3]; previously published for 10): 20 to 30 mg/kg

Compound: C[C@](O)(Cn1ccc(F)n1)C(=O)Nc1ccc(C#N)c(C(F)(F)F)c1 [Compound 16b, (S)—N-(4-Cyano-3-(trifluoromethyl)phenyl)-3-(3-fluoro-1H-pyrazol-1-yl)-2-hydroxy-2-methylpropanamide]
- half-life at 1 µM [5, 11]: ≥ 0.807 h

Compound: C[C@](O)(Cn1cc(Cl)cn1)C(=O)Nc1ccc(C#N)c(C(F)(F)F)c1 [Compound 16c, (S)-3-(4-Chloro-1H-pyrazol-1-yl)-N-(4-cyano-3-(trifluoromethyl)phenyl)-2-hydroxy-2-methylpropanamide]
- RLM T1/2 ([6]; cofactors for phases I and II): >2 h
- half-life at 1 µM [6, 12]: > 2 h

Compound: C[C@](O)(Cn1cc(C(F)(F)F)cn1)C(=O)Nc1ccc(C#N)c(C(F)(F)F)c1 [Compound 16g, (S)—N-(4-Cyano-3-(trifluoromethyl)phenyl)-2-hydroxy-2-methyl-3-(4-(trifluoromethyl)-1H-pyrazol-1-yl)propanamide]
- half-life at 1 µM [6, 12]: > 2 h
- half-life at 1 µM [5, 11]: ≥ 0.807 h

Compound: C[C@](O)(Cn1ccc(C(F)(F)F)n1)C(=O)Nc1ccc(C#N)c(C(F)(F)F)c1 [Compound 16h, (S)—N-(4-Cyano-3-(trifluoromethyl)phenyl)-2-hydroxy-2-methyl-3-(3-(trifluoromethyl)-1H-pyrazol-1-yl)propanamide]
- half-life at 1 µM [5, 11]: ≥ 0.807 h

Compound: C[C@](O)(Cn1cc(C#N)cn1)C(=O)Nc1ccc(C#N)c(C(F)(F)F)c1 [Compound 16i, (S)-3-(4-Cyano-1H-pyrazol-1-yl)-N-(4-cyano-3-(trifluoromethyl)phenyl)-2-hydroxy-2-methylpropanamide]
- toxicity in 20 mg/kg fixed dose screening Hershberger ([7]; 20 mg/kg, rats): toxic so no data
- lethality in vivo [8]: lethality at 5 mg/kg
- half-life at 1 µM [5, 11]: ≥ 0.807 h

Compound: C[C@](O)(Cn1cc(F)cn1)C(=O)Nc1cnc(C#N)c(C(F)(F)F)c1 [Compound 21a]
- RLM CLint ([6]; rat, microsomes, 1 µM, pH 7.5): 0 µL/min/mg
- HLM CLint ([9]; 1 µM, pH 7.5): 0 µL/min/mg
- half-life at 1 µM (in vitro): ≥ 0.807 h

Compound: C[C@](O)(Cn1cc(C#N)cn1)C(=O)Nc1cnc(C#N)c(C(F)(F)F)c1 [Compound 21c, (S)-3-(4-Cyano-1H-pyrazol-1-yl)-N-(6-cyano-5-(trifluoromethyl)pyridin-3-yl)-2-hydroxy-2-methylpropanamide]
- tumor volume at end ([2]; oral, NSG mice): 1205 mm^3
- tumor volume at start ([2]; oral, NSG mice): 301 mm^3
- tumor volume inhibition (maximum) ([2]; oral, NSG mice, FIGS. 11A-11B): 63%
- growth inhibition of UT-1355 PDX (UT-1355 TNBC PDX; 60 mpk 21c, 10 60 mpk b.i.d): significantly inhibited the growth
- tumor volume at start (UT-1355 TNBC PDX; 60 mpk 21c, 10 60 mpk b.i.d): 227 mm³
- tumor volume at end (UT-1355 TNBC PDX; 60 mpk 21c, 10 60 mpk b.i.d): 331

Compound: C[C@](O)(Cn1cc(F)cn1)C(=O)Nc1ccc(C(N)=O)nc1 [Compound 21g, (S)-5-(3-(4-Fluoro-1H-pyrazol-1-yl)-2-hydroxy-2-methylpropanamido)picolinamide]
- half-life at 1 µM ([5]; pH 7.5): > 6 h

Compound: C[C@](O)(Cn1cc(Br)c(F)n1)C(=O)Nc1ccc(C#N)c(C(F)(F)F)c1 [Compound 26a, (S)-3-(4-Bromo-3-fluoro-1H-pyrazol-1-yl)-N-(4-cyano-3-(trifluoromethyl)phenyl)-2-hydroxy-2-methylpropanamide]
- half-life at 1 µM [6, 12]: > 2 h
- half-life at 1 µM ([9]; pH 7.5, cofactors for phases I and II, read-out: HLM T1/2): > 2 h
- SV weight reduction ([7]; 20 mg/kg po daily, intact rats, FIG. 7B): ~50%
- tumor weights at the end of the study [10]: significant inhibition

Compound: C[C@@](O)(Cn1cc(F)cn1)C(=O)Nc1ccc(C#N)c(C(F)(F)F)c1 [Compound 29a, (R)—N-(4-Cyano-3-(trifluoromethyl)phenyl)-3-(4-fluoro-1H-pyrazol-1-yl)-2-hydroxy-2-methylpropanamide]
- half-life at 1 µM ([5]; pH 7.5): ≥ 0.807 h

Compound: C[C@](O)(Cn1cc(F)cn1)C(=O)Nc1ccc(C#N)cc1Cl [Compound 29i, (S)—N-(2-Chloro-4-Cyanophenyl)-3-(4-Fluoro-1H-Pyrazol-l-Yl)-2-Hydroxy-2-Methylpropanamide]
- IC50 (CMV-hAR): 1.23 µM

Compound: C[C@](O)(Cn1cc(C#N)cn1)C(=O)Nc1ccc(C#N)cc1Cl [Compound 29j, (S)—N-(2-chloro-4-cyanophenyl)-3-(4-cyano-1H-pyrazol-1-yl)-2-hydroxy-2-methylpropanamide]
- IC50 (CMV-hAR): 1.12 µM

Compound: Cc1c(NC(=O)[C@@](C)(O)Cn2cc(C#N)cn2)ccc(C#N)c1Cl [Compound 29k, (S)—N-(3-Chloro-4-Cyano-2-Methylphenyl)-3-(4-Cyano-1H-Pyrazol-1-Yl)-2-Hydroxy-2-Methylpropanamide]
- IC50 (CMV-hAR): 1.7 µM

Compound: C[C@](O)(Cn1cc(-c2ccc(C#N)cc2)nn1)C(=O)Nc1ccc(C#N)c(C(F)(F)F)c1 [Compound 29o, (S)—N-(4-Cyano-3-(Trifluoromethyl)Phenyl)-3-(4-(4-Cyanophenyl)-1H-1,2,3-Triazol-1-Yl)-2-Hydroxy-2-Methylpropanamide]
- IC50 (CMV-hAR): 0.062 µM
- Ki (hAR-LBD (633-919)): 1.51 µM
